The text below walks through data of patent US9113629B2, “4-amino-6-(4-substituted-phenyl)-picolinates and 6-amino-2-(4-substituted-phenyl)-pyrimidine-4-carboxylates and their use as herbicides” (DOW AGROSCIENCES LLC, priority 2013, dated 2015).

Common to all, as to test: Post-emergent Test III, herbicidal activity in wheat and barley
What all share (type): in vivo

The test system of experiment [1] is SASKR: Russian thistle (Salsola iberica). To be noted: 21 days after application. The essentials: (§1)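 Plants at the second to third true-leaf stage, grown in a greenhouse at about 18/17 °C with a 14 h photoperiod, were sprayed post-emergence at 187 L/ha with the high rate and ½× to 1/16× serial dilutions in an acetone/DMSO/crop-oil/surfactant carrier. Injury was rated visually at 21 d on a 0–100% scale, and GR20–GR90 were derived by probit analysis.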

For experiment [2], the system named is VIOSS: wild pansy (Viola tricolor), field violet (Viola arvensis). Particulars: 21 days after application. The essentials: as §1
For experiment [3], the system named is PAPRH: common poppy (Papaver rhoeas). The essentials: as §1
The test system of experiment [4] is PHAMI: lesser canary grass (Phalaris minor). The gist of the method: as §1
For experiment [5], the system named is STEME: common chickweed (Stellaria media). The essentials:
as §1

Setting [6] is: probit analysis, dose for 50 percent growth reduction.
[7] abbreviates: probit analysis, dose for 80 percent growth reduction.
Where [8] appears, read: probit analysis, dose for growth reduction of 50 percent, 21 days after application.
Setting [9] is: probit analysis, dose for growth reduction of 80 percent, 21 days after application.

`COC(=O)c1nc(-c2ccc(Br)c(F)c2)c(F)c(N)c1Cl` [Compound 49]: the pest or weed control at 35 g/ha in experiment [1] (Salsola tragus, post-emergence, 504 h, 35 g ai/ha, read-out: Visual Gorowth Reduction (%) 21 days After Application SASKR) was in the range of 75 to 84%; in experiment [2] (Viola tricolor, post-emergence, 504 h, 35 g ai/ha, read-out: Visual Gorowth Reduction (%) 21 days After Application VIOSS), 95 to 100%. Further, the pest or weed control at 70 g/ha in experiment [1] (Salsola tragus, post-emergence, 504 h, 70 g ai/ha, read-out: Visual Gorowth Reduction (%) 21 days After Application SASKR) was 85 to 94%; in experiment [2] (Viola tricolor, post-emergence, 504 h, 70 g ai/ha, read-out: Visual Gorowth Reduction (%) 21 days After Application VIOSS), 95 to 100%. The “GR50 SASKR” value in experiment [1] (setting [6]) was determined as 1 g ai/ha. Besides, the “GR80 SASKR” value in experiment [1] (setting [7]) worked out at 30 g ai/ha. Further, the “GR50 VIOSS” value in experiment [2] (setting [6]) was found to be 5 g ai/ha. Further, the “GR80 VIOSS” value in experiment [2] (setting [7]) was 8 g ai/ha.
`COC(=O)c1nc(-c2ccc(Cl)c(F)c2)c(F)c(N)c1Cl` [Compound 216]: the pest or weed control at 35 g/ha in experiment [3] (Papaver rhoeas, post-emergence, 504 h, 35 g ai/ha, read-out: Visual Growth Reduction (%) 21 Days After Application PAPRH) fell in the range of 95 to 100%; in experiment [4] (Phalaris minor, post-emergence, 504 h, 35 g ai/ha, read-out: Visual Growth Reduction (%) 21 Days After Application PHAMI), 0 to 29%; in experiment [5] (Stellaria media, post-emergence, 504 h, 35 g ai/ha, read-out: Visual Growth Reduction (%) 21 Days After Application STEME), 30 to 44%. In addition, the pest or weed control at 70 g/ha in experiment [3] (Papaver rhoeas, post-emergence, 504 h, 70 g ai/ha, read-out: Visual Growth Reduction (%) 21 Days After Application PAPRH) is 95 to 100%; in experiment [4] (Phalaris minor, post-emergence, 504 h, 70 g ai/ha, read-out: Visual Growth Reduction (%) 21 Days After Application PHAMI), 30 to 44%; in experiment [5] (Stellaria media, post-emergence, 504 h, 70 g ai/ha, read-out: Visual Growth Reduction (%) 21 Days After Application STEME) it was 30 to 44%. For the same compound, the pest or weed control at 140 g/ha in experiment [3] (Papaver rhoeas, post-emergence, 504 h, 140 g ai/ha, read-out: Visual Growth Reduction (%) 21 Days After Application PAPRH) is 95 to 100%; in experiment [4] (Phalaris minor, post-emergence, 504 h, 140 g ai/ha, read-out: Visual Growth Reduction (%) 21 Days After Application PHAMI), 75 to 84%; in experiment [5] (Stellaria media, post-emergence, 504 h, 140 g ai/ha, read-out: Visual Growth Reduction (%) 21 Days After Application STEME) it was 75 to 84%. For the same compound, in experiment [3] (setting [8]), the “GR50 PAPRH” value stood at 1 g ai/ha. The “GR80 PAPRH” value in experiment [3] (setting [9]) is on record as 1 g ai/ha. For the same compound, the “GR50 PHAMI” value in experiment [4] (setting [8]) is on record as >140 g ai/ha. For the same compound, the “GR80 PHAMI” value in experiment [4] (setting [9]) is listed as >140 g ai/ha. In experiment [5] (setting [8]), the “GR50 STEME” value was 52 g ai/ha. Further, the “GR80 STEME” value in experiment [5] (setting [9]) is reported as >140 g ai/ha.
